# From PMC4702177, “Discovering new mTOR inhibitors for cancer treatment through virtual screening methods and in vitro assays” (Scientific Reports, 2016)
# Columns and labels:
# Experiment in all cases: SelectScreen kinase profiling
# Type in all cases: biochemical
# Settings in all cases: mean ± SD of triplicate
# IKBKB (IKK beta) = IKBKB (IKK beta) (Homo sapiens, UniProt O14920)
# From the text: (§1) To characterize the kinase selectivity of compound 17, we profiled its ability to bind to a panel of 24 structurally related kinases using the SelectScreen Kinase Profiling Service (Life Technologies Corporation, Madison, WI).
# PDK1 = PDK1 (Homo sapiens, UniProt O15530)
# From the text: as §1
# PIK3CG (p110 gamma) = PIK3CG (p110 gamma) (Homo sapiens, UniProt P48736)
# PIK3CG (p110 gamma), sequence (P48736 whole entry): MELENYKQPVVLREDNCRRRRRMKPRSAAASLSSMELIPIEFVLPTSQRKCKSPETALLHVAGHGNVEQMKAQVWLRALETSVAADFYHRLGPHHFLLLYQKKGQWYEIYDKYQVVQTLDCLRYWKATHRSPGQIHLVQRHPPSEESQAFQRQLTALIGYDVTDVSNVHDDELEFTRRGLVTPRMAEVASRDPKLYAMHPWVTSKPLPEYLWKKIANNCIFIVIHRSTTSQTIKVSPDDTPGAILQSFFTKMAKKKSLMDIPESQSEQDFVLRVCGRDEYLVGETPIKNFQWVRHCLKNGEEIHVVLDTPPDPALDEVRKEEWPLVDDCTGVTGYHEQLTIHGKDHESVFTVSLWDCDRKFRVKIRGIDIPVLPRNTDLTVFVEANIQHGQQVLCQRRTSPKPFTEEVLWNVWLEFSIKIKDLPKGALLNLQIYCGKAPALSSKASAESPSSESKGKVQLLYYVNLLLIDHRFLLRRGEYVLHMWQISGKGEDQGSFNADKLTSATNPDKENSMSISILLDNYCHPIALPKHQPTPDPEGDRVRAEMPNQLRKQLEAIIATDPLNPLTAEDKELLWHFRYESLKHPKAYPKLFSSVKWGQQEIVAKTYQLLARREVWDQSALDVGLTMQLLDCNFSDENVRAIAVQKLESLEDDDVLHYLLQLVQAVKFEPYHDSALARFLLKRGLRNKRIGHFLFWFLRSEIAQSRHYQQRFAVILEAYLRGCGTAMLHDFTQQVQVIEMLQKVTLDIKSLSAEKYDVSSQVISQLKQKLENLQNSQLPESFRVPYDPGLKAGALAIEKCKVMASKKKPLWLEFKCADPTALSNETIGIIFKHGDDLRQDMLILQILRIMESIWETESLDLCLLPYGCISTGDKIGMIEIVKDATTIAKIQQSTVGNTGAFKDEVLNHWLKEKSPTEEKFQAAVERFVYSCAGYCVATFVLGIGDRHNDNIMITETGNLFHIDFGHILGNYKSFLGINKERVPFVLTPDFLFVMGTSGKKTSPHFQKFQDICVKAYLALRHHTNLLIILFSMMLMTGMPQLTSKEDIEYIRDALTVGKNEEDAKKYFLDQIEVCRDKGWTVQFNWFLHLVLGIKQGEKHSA
# From the text: as §1
# PIK3C2B (PI3K-C2 beta) = PIK3C2B (PI3K-C2 beta) (Homo sapiens, UniProt O00750)
# PIK3C2B (PI3K-C2 beta), sequence (O00750 whole entry): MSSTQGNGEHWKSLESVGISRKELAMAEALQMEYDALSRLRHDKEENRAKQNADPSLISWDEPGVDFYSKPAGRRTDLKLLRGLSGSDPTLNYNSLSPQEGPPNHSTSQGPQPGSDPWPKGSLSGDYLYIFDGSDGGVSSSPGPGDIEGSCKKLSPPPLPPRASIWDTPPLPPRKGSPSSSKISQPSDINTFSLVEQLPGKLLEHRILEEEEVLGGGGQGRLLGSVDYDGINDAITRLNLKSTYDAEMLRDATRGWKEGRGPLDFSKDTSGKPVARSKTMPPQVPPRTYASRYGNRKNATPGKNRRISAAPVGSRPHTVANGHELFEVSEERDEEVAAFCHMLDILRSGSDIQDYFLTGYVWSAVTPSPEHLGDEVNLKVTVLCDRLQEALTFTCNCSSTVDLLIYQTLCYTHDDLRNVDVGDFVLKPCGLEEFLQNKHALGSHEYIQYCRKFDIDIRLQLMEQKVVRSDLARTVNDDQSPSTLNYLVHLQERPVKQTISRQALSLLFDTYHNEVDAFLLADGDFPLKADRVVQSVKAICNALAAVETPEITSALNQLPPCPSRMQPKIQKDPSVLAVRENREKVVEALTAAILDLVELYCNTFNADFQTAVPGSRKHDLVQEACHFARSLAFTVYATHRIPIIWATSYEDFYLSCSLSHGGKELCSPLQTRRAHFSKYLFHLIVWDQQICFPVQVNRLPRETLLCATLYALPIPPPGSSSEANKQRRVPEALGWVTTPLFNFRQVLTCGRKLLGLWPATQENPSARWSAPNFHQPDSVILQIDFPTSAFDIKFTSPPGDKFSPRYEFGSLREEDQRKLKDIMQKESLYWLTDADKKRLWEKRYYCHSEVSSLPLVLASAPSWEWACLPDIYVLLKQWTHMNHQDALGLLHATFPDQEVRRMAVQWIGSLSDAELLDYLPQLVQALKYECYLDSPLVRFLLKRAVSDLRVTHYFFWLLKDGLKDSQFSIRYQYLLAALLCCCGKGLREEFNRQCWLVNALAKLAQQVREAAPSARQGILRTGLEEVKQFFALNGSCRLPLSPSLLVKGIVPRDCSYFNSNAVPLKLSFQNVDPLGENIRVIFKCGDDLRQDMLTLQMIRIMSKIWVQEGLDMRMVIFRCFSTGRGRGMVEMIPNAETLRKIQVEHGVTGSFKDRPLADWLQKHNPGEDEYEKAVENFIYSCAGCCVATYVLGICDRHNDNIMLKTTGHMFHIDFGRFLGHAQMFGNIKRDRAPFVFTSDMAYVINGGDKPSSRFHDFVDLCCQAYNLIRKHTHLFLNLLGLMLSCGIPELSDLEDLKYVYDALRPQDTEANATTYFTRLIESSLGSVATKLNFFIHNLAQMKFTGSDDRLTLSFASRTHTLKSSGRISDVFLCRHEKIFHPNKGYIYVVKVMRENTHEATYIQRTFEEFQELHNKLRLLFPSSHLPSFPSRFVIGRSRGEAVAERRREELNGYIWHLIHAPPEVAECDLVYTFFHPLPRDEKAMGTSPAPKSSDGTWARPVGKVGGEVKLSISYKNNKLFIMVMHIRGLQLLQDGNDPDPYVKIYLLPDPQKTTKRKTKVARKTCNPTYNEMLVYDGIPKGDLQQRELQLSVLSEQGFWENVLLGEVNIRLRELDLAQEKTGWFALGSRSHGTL
# From the text: as §1
# PI4KB (PI4K beta) = PI4KB (PI4K beta) (Homo sapiens, UniProt Q9UBF8)
# From the text: as §1
# PIK3C2A (PI3K-C2 alpha) = PIK3C2A (PI3K-C2 alpha) (Homo sapiens, UniProt O00443)
# From the text: as §1
# DNA-PK = DNA-PK (Homo sapiens, UniProt P78527)
# From the text: as §1
# CDK2/cyclin A = CDK2/cyclin A (Homo sapiens, UniProt P24941)
# From the text: as §1
# PRKCA (PKC alpha) = PRKCA (PKC alpha) (Homo sapiens, UniProt P17252)
# From the text: as §1
# PRKCB1 (PKC beta I) = PRKCB1 (PKC beta I) (Homo sapiens, UniProt P05771)
# From the text: as §1
# [1] = molecular target: PIK3CD/PIK3R1 (p110 delta/p85 alpha) (Homo sapiens, UniProt O00329)
# From the text: as §1
# FRAP1 (mTOR) = FRAP1 (mTOR) (Homo sapiens, UniProt P42345)
# From the text: as §1
# AKT2 (PKB beta) = AKT2 (PKB beta) (Homo sapiens, UniProt P31751)
# AKT2 (PKB beta), sequence (P31751 whole entry): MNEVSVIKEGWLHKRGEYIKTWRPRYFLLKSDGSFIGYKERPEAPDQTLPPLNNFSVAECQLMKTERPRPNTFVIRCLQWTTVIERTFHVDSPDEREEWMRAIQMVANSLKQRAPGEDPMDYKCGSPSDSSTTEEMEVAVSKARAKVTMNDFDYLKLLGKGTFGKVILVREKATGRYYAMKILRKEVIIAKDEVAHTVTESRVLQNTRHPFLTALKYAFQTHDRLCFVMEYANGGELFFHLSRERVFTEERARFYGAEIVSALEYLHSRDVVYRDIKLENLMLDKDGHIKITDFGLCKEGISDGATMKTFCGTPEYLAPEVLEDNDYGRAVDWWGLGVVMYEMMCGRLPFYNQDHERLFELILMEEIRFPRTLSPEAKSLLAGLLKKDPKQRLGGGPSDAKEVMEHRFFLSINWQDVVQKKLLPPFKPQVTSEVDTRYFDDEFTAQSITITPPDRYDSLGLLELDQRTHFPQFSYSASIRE
# From the text: as §1
# MARK1 (MARK) = MARK1 (MARK) (Homo sapiens, UniProt Q9P0L2)
# MARK1 (MARK), sequence (Q9P0L2 whole entry): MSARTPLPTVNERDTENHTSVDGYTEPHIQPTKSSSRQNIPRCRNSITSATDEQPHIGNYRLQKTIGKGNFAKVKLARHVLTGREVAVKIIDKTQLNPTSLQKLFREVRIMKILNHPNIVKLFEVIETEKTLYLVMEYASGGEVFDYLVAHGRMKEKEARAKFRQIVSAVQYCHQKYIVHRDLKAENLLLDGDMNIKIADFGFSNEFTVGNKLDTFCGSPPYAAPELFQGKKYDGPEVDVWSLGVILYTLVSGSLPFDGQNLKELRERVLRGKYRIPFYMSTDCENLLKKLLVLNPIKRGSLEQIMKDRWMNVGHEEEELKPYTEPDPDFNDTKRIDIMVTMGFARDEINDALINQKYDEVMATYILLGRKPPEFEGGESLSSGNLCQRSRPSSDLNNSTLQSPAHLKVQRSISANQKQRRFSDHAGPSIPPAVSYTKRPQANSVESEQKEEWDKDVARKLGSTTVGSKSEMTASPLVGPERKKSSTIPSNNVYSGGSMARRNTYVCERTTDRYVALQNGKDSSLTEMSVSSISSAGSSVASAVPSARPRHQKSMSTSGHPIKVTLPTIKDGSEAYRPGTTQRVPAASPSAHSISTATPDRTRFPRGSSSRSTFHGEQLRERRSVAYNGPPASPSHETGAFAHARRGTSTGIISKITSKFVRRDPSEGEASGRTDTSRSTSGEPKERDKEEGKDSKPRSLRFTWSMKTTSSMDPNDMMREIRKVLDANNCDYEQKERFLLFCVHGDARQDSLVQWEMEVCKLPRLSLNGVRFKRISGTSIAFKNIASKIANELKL
# From the text: as §1
smiles,measurement,setting,value
Nc1nn2c(nc(N)c3c(N)n[nH]c32)c1/N=N/c1ccccc1 [Compound 17],inhibition at 10 µM,IKBKB (IKK beta),11.7 ± 1.62%
same,inhibition at 10 µM,PDK1,3.94 ± 3.24%
same,inhibition at 10 µM,PIK3CG (p110 gamma),40.9 ± 1.19%
same,inhibition at 10 µM,PIK3C2B (PI3K-C2 beta),39.3 ± 7.29%
same,inhibition at 10 µM,PI4KB (PI4K beta),31.8 ± 1.18%
same,inhibition at 10 µM,PIK3C2A (PI3K-C2 alpha),28.6 ± 1.96%
same,inhibition at 10 µM,DNA-PK,61.9 ± 6.43%
same,inhibition at 10 µM,CDK2/cyclin A,-1.54 ± 1.35%
same,inhibition at 10 µM,PRKCA (PKC alpha),9.84 ± 3.05%
same,inhibition at 10 µM,PRKCB1 (PKC beta I),9.54 ± 0.09%
same,inhibition at 10 µM,[1],41.4 ± 0.63%
same,inhibition at 10 µM,FRAP1 (mTOR),16.9 ± 4.99%
same,inhibition at 10 µM,AKT2 (PKB beta),33.6 ± 3.23%
same,inhibition at 10 µM,MARK1 (MARK),-12.2 ± 4.24%
